Earlier results in patent publication US7989600B2, “Macrolide compounds containing biotin and photo-affinity group for macrolide target identification” (GlaxoSmithKline Istrazivacki Centar Zagreb D.O.O., priority 2005, dated 2011).

Test system: α1-acid glycoprotein from serum
Settings: dialysis in combination HPLC methods; Castearena et al., J Chemother. 1995

CC[C@H]1OC(=O)[C@H](C)[C@@H](O[C@H]2C[C@@](C)(OC)[C@@H](O)[C@H](C)O2)[C@H](C)[C@@H](O[C@@H]2O[C@H](C)C[C@H](N(C)C)[C@H]2O)[C@](C)(O)C[C@@H](C)CN(C)[C@H](C)[C@@H](O)[C@]1(C)O [azithromycin]
binding to α1-acid glycoprotein from serum: specifically binds
